{
  "source": "paper PMC9694130",
  "about": "“Design, Preparation, Characterization and Evaluation of Five Cocrystal Hydrates of Fluconazole with Hydroxybenzoic Acids” (Pharmaceutics, 2022)",
  "key": {"[1]": {"conditions": "cited from earlier work; for aqueous solubility of CCFs in water: water at 25 °C, no reference given"}, "[2]": {"experiment": "Accelerated stability test (PXRD)", "assay_type": "physicochemical", "conditions": "for stability under high temperature: high temperature (60 ± 1 °C), phase changes reported after 5 days", "description": "Approximately 50 mg of powdered samples were stored under the three test conditions and measured at regular time intervals (0, 5, and 10 days) by PXRD."}, "[3]": {"experiment": "Apparent powder dissolution in ultrapure water", "assay_type": "physicochemical", "conditions": "37 °C, 100 rpm, rank among the three cocrystal hydrates", "description": "Sampling was conducted by withdrawing 1 mL aliquot of the sample at time intervals of 5, 10, 15, 20, 30, 45, 60, 90, and 120 min from the vessel and filtered through a 0.45 μm syringe tip filter, and the aliquots were assayed on a high-performance liquid chromatography (HPLC) system. The measurements of the powder dissolution rate were repeated in triplicate.\n(§1) The HPLC (Agilent Technologies, Santa Clara, USA) system was equipped with a UV detector and an Agilent Eclipse XDB−C18 (250 mm × 4.6 mm, 5 μm) column with the temperature set to 30 °C. The mobile phase consisted of acetonitrile and water (25:75, v:v) with a flow rate of 1.0 mL min^−1. The injection volume was 10 μL and the detection wavelength was set to 261 nm."}, "[4]": {"experiment": "Intrinsic dissolution rate (IDR) in ultrapure water", "assay_type": "physicochemical", "conditions": "37 °C; for order of intrinsic dissolution rate: ultrapure water, 100 rpm, rank among the three cocrystal hydrates", "description": "The resulting disk has a flat surface of 0.5 cm^2. Then, the disk was dipped into a vessel containing 900 mL ultrapure water at 37 ± 0.2 °C, with the paddle rotating at 100 rpm. At time intervals (60, 75, 90, 120, 150, 180, 210, 240, 270, and 300 min), 1 mL of the dissolution medium was withdrawn manually. After filtration through a 0.45 μm syringe tip filter, the aliquots were assayed on an HPLC system. Each experiment was repeated in triplicate.\nas §1"}},
  "data": [
    {"compound": "O=C(O)c1ccc(O)cc1O", "note": "[24DHB, 2,4-dihydroxybenzoic acid]", "values": [
      {"measurement": "aqueous solubility of CCFs in water", "setting": "[1]", "value": 8, "unit": "mg/mL"}
    ]},
    {"compound": "O=C(O)c1ccc(O)c(O)c1", "note": "[34DHB, 3,4-dihydroxybenzoic acid]", "values": [
      {"measurement": "aqueous solubility of CCFs in water", "setting": "[1]", "value": 29, "unit": "mg/mL"}
    ]},
    {"compound": "O=C(O)c1cc(O)cc(O)c1", "note": "[35DHB, 3,5-dihydroxybenzoic acid]", "values": [
      {"measurement": "aqueous solubility of CCFs in water", "setting": "[1]", "value": 84, "unit": "mg/mL"}
    ]},
    {"compound": "O.OC(Cn1cncn1)(Cn1cncn1)c1ccc(F)cc1F", "note": "[FLZ monohydrate, reference compound]", "values": [
      {"measurement": "stability under high temperature", "setting": "[2]; PXRD at 0, 5 and 10 days", "value": "converted to FLZ form II"}
    ]},
    {"compound": "OC(Cn1cncn1)(Cn1cncn1)c1ccc(F)cc1F", "note": "[FLZ, 2-(2,4-difluorophenyl)-1,3-di(1H-1,2,4-triazol-1-yl)propan-2-ol, reference compound]", "values": [
      {"measurement": "aqueous solubility", "setting": "[1]; FLZ form II", "value": "2 to 8", "unit": "mg/mL"}
    ]},
    {"compound": "O.O.O=C(O)c1ccc(O)cc1O.OC(Cn1cncn1)(Cn1cncn1)c1ccc(F)cc1F.OC(Cn1cncn1)(Cn1cncn1)c1ccc(F)cc1F", "note": "[FLZ−24DHB−H2O (1:0.5:1)]", "values": [
      {"measurement": "stability under high temperature", "setting": "[2]; PXRD at 0, 5 and 10 days", "value": "converted to the physical mixture of amorphous and crystalline phases"},
      {"measurement": "order of apparent dissolution rate", "setting": "[3]", "value": "FLZ−35DHB−H2O (1:1:1) > FLZ−34DHB−H2O (1:1:1) > FLZ−24DHB−H2O (1:0.5:1)"},
      {"measurement": "order of intrinsic dissolution rate", "setting": "[4]", "value": "FLZ−35DHB−H2O (1:1:1) > FLZ−34DHB−H2O (1:1:1) > FLZ−24DHB−H2O (1:0.5:1)"}
    ]},
    {"compound": "O.O.O=C(O)c1ccc(O)c(O)c1.OC(Cn1cncn1)(Cn1cncn1)c1ccc(F)cc1F.OC(Cn1cncn1)(Cn1cncn1)c1ccc(F)cc1F", "note": "[FLZ−34DHB−H2O (1:0.5:1)]", "values": [
      {"measurement": "stability under high temperature", "setting": "[2]; PXRD at 0, 5 and 10 days", "value": "converted to the physical mixture of amorphous and crystalline phases"}
    ]},
    {"compound": "O.O=C(O)c1ccc(O)c(O)c1.OC(Cn1cncn1)(Cn1cncn1)c1ccc(F)cc1F", "note": "[FLZ−34DHB−H2O (1:1:1)]", "values": [
      {"measurement": "hygroscopicity relative to FLZ", "setting": "[2]; compared with commercialized FLZ form II", "value": "significantly reduces hygroscopicity"},
      {"measurement": "stability under high humidity", "setting": "[2]; high humidity (90 ± 5%, 25 °C), PXRD at 0, 5 and 10 days", "value": "stable"},
      {"measurement": "stability under high temperature", "setting": "[2]; PXRD at 0, 5 and 10 days", "value": "stable"},
      {"measurement": "stability under illumination", "setting": "[2]; illumination (4500 ± 500 lx, 25 °C), PXRD at 0, 5 and 10 days", "value": "stable"},
      {"measurement": "order of apparent dissolution rate", "setting": "[3]", "value": "FLZ−35DHB−H2O (1:1:1) > FLZ−34DHB−H2O (1:1:1) > FLZ−24DHB−H2O (1:0.5:1)"},
      {"measurement": "order of intrinsic dissolution rate", "setting": "[4]", "value": "FLZ−35DHB−H2O (1:1:1) > FLZ−34DHB−H2O (1:1:1) > FLZ−24DHB−H2O (1:0.5:1)"}
    ]},
    {"compound": "O.O=C(O)c1cc(O)cc(O)c1.OC(Cn1cncn1)(Cn1cncn1)c1ccc(F)cc1F", "note": "[FLZ−35DHB−H2O (1:1:1)]", "values": [
      {"measurement": "stability under high temperature", "setting": "[2]; PXRD at 0, 5 and 10 days", "value": "forming an anhydrous form"},
      {"measurement": "order of apparent dissolution rate", "setting": "[3]", "value": "FLZ−35DHB−H2O (1:1:1) > FLZ−34DHB−H2O (1:1:1) > FLZ−24DHB−H2O (1:0.5:1)"},
      {"measurement": "IDR compared with FLZ form II", "setting": "[4]; ultrapure water 900 mL, paddle 100 rpm, disk 0.5 cm^2", "value": "higher IDR"},
      {"measurement": "order of intrinsic dissolution rate", "setting": "[4]", "value": "FLZ−35DHB−H2O (1:1:1) > FLZ−34DHB−H2O (1:1:1) > FLZ−24DHB−H2O (1:0.5:1)"}
    ]}
  ]
}
